Laboratory results from patent US6620828B2, “Thiazole compounds and pharmaceutical compositions for inhibiting protein kinases and methods for their use” (Agouron Pharmaceuticals, Inc., priority 1999, dated 2003).
pIC50, pKi: −log10 of the molar value. Where “and” joins values, the source holds several entries; their conditions need not be identical. Equal values may be shown once. Read-outs that look alike come from different tables or passages of the source.

Experiments:
[1] = target: T1, phosphorylated VEGF-R2Δ50 (FLVK-P) (Homo sapiens, UniProt P35968, DEL940-989/E990V); assay: VEGF-R2 coupled spectrophotometric (FLVK-P) assay; type: biochemical; details: for pKi: spectrophotometric assay
T1 construct: VEGF-R2Δ50 contains residues 806-939 and 990-1171; made in house; host or cells: baculovirus/insect cells
T1 sequence (P35968 with tags, fused parts or gaps DEL940-989/E990V limits assumed): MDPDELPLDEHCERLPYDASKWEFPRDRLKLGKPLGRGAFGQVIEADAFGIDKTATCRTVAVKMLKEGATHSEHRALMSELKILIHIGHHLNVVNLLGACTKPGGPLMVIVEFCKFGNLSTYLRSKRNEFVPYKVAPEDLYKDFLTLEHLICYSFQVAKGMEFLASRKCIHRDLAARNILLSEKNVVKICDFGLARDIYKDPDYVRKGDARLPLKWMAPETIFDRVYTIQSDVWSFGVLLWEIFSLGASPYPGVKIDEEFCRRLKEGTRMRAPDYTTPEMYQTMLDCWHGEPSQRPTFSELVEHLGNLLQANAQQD
Procedure, shortened: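 Baculovirus-expressed human VEGF-R2Δ50 (residues 806-939/990-1171, E990V) was autophosphorylated with 3 mM ATP, 40 mM MgCl2 for 2 h at 4° C. ADP formation was coupled via PK/LDH to NADH oxidation, read at 340 nm, with 5.1 mM poly(E4Y1), 1 mM ATP, 25 mM MgCl2, Hepes pH 7.5. Ki came from activity across compound concentrations.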

FGF-R1 = target: T2, FGF-R1 (Homo sapiens, UniProt P11362, C488A/C584S/L457V); assay: FGF-R spectrophotometric assay; type: biochemical; details: for inhibition at 1 µM: Table 3, % inh @ 1 uM, read-out: FGF-P Ki (nM) (% inh @ 1 uM)
T2 construct: starting from the endogenous methionine residue 456 to glutamate 766; made in house; host or cells: baculovirus vector expression system
T2 sequence (P11362 456-766 L457V/C488A/C584S): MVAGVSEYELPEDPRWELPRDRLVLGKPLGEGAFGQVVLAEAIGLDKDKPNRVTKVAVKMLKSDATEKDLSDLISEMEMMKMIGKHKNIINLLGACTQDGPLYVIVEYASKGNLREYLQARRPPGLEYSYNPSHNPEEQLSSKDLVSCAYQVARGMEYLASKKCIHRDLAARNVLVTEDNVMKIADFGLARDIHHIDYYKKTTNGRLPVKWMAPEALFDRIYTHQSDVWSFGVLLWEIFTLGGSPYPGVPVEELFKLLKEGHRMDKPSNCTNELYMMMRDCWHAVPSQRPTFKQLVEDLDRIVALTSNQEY
Procedure, shortened: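 Kinase domain (Met456–Glu766, baculovirus-expressed) used at 50 nM in a spectrophotometric assay run as for VEGF-R2. Substrates were 2 mM ATP and 15 mM poly(E4Y1).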

LCK tyrosine kinase [2] = target: T3, LCK tyrosine kinase (Homo sapiens, UniProt P06239, C224D/P223M); assay: LCK spectrophotometric assay; type: biochemical; details: for pKi: Table 3, first value of cells with two values
T3 construct: starting from amino acid residue 223 to the end of the protein at residue 509; made in house; host or cells: insect cells
T3 sequence (P06239 223-509 P223M/C224D): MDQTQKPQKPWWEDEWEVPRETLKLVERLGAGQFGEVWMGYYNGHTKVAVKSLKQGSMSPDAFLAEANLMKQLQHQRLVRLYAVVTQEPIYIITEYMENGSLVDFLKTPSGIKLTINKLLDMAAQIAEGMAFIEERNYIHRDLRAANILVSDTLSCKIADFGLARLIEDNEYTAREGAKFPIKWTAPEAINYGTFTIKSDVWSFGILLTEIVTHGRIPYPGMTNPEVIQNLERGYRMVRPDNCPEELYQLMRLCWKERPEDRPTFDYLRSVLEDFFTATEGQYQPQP
Method: LCK Construct for Assay: The LCK tyrosine kinase was expressed in insect cells as an N-terminal deletion starting from amino acid residue 223 to the end of the protein at residue 509, with the following two amino acid substitutions at the N-terminus: […] and C224D.
The spectrophotometric assay was carried out as described above for VEGF-R2, except for the following changes in concentration: LCK=60 nM, MgCl2=0 mM, poly(E4Y1)=20 mM.

FAKcd409 = target: T4, FAKcd409 (Homo sapiens, UniProt Q05397, P410T); assay: FAK HTS assay; type: biochemical; details: 10 uM compound, HTS Delphia assay; 10 µM
T4 construct: comprises residues methionine 409 to glutamate 689; made in house; host or cells: baculovirus vector expression system
T4 sequence (Q05397 409-689 P410T): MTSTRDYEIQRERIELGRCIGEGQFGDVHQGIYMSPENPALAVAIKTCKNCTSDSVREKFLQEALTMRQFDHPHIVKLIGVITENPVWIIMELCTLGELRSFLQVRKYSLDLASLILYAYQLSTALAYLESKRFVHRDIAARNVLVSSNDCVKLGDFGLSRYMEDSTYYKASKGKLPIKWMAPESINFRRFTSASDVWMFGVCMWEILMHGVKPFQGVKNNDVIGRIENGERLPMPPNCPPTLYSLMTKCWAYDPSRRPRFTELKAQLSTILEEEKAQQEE

VEGF = assay: In vivo assay of retinal vascular development in neonatal rats; parameters: species or system rat; details: development model; intravitreal, 2 μl of 5 mg/ml initial drug concentration
Source text: In Vivo Assay of Retinal Vascular Development in Neonatal Rats
The development of the retinal vascular in rats occurs from postnatal day 1 to postnatal day 14 (P1-P14). This process is dependent on the activity of VEGF (J. Stone, et al, J. Neurosci., 15, 4738 (1995)). […] To assess the ability of specific compounds to inhibit the activity of VEGF in vivo, compounds were formulated in an appropriate vehicle, usually 50% polyethylene glycol, average molecular weight 400 daltons, and 50% solution of 300 mM sucrose in deionized water. Typically, two microliters (2 μl) of the drug solution was injected into the midvitreous of the eye of rat pups on postnatal day 8 or 9. Six days after the intravitreal injection, the animals were sacrificed and the retinas dissected free from the remaining ocular tissue. […] The individual retinas are then flat-mount onto glass slides and examined to determine the extent of vascularization. […] The amount of vessel regression was used to assess the relative potency of the compounds after in vivo administration. Vessel regression is graded on subjective scale of one to three pluses, with one plus being detectable regression judged to be approximately 25 percent or less, two pluses being judged to be approximately 25-75% regression and three pluses give to retinas with near total regression (approximately 75% or greater).

[3] = target: T5, unphosphorylated VEGF-R2Δ50 (FLVK) (Homo sapiens, UniProt P35968, DEL940-989/E990V); assay: VEGF-R2 coupled spectrophotometric assay, unphosphorylated enzyme (FLVK); type: biochemical
T5 construct: VEGF-R2Δ50 contains residues 806-939 and 990-1171; made in house; host or cells: baculovirus/insect cells
T5 sequence (P35968 with tags, fused parts or gaps DEL940-989/E990V limits assumed): as the sequence (P35968 with tags, fused parts or gaps DEL940-989/E990V limits assumed) above
Procedure, shortened: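 Unphosphorylated VEGF-R2Δ50 (5 to 40 nM) with 20 mM poly(E4Y1), 3 mM ATP, 60 mM MgCl2, 2 mM MnCl2 in 200 mM Hepes pH 7.5. ADP production coupled via PK/LDH to NADH oxidation, read at 340 nm. Ki from activity at varying compound concentrations.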

[4] = tested on: lung cancer cells (line MV522); assay: Cancer cell proliferation (MV522) assay; type: cell-based
LCK tyrosine kinase [5] = target: T3, LCK tyrosine kinase; assay: LCK spectrophotometric assay; type: biochemical; details: Table 3, read-out: LCK (% inh @ 1 uM)
[6] = tested on: human umbilical vein endothelial cells (HUVEC); assay: HUVEC proliferation assay; type: cell-based; details: Homo sapiens, HUVEC
Procedure, shortened: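 Exponentially growing HUVEC were serum-starved 24 h (F12K + 1% FBS), pre-treated 1 h with compound (0.1% DMSO final), then stimulated with 6 ng/ml VEGF. Proliferation was read 72 h later by MTT reduction (A595). IC50 came from seven 0.5-log concentrations in triplicate; screens gave % inhibition relative to VEGF-only and starved wells.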

[7] = tested on: VEGF dependent retinal neovascularization; assay: In vivo assay in neonatal rat model of retinopathy of prematurity; details: intravitreal injection
Method: In Vivo Assay of Retinal Vascular Development in Neonatal Rat Model of Retinopathy of Prematurity
A second model of VEGF dependent retinal neovascularization was employed to evaluate the activities of this series of compounds. In this model (Penn et. al, Invest. Ophthalmol. Vis. Sci., 36, 2063, (1995)), rats pups (n=16) with their mother are placed in a computer controlled chamber that regulates the concentration of oxygen. The animals are exposed for 24 hours to a concentration of 50% oxygen followed by 24 hours at a concentration of 10% oxygen. This alternating cycle of hyperoxia followed by hypoxia is repeated 7 times after which the animals are removed to room air (P14). Compounds are administered via intravitreal injection upon removal to room air and the animals are sacrificed 6 days later (P20). The isolated retinas are then isolated, stained mounted and analyzed as detail above in the development model. The effectiveness was also graded as is described for the development model.

[8] = Table 3, some entries 'Slow binder'

Structure (SMILES) | pKi [3, 8] | inhibition at 1 µM (LCK tyrosine kinase [5]) | inhibition at 1 µM (FGF-R1) | pKi (LCK tyrosine kinase [2]) | pIC50 ([6]; Table 3) | other results
COc1cc(Nc2nc(N)c(-c3nc(-c4ccccc4O)cs3)s2)cc(OC)c1OC [A(23), 2-[4′-Amino-2′-(3,4,5-trimethoxy-phenylamino)-[2,5′]bithiazolyl-4-yl]-phenol] |  |  |  |  |  | pKi ([1]; Table 2): 7.41; melting point: 186 to 190 °C (dec.); FGF-R % inhibition @ 5 (FGF-R1; Table 2, at 5 (head μM)): 47% @; LCK % inhibition @ 5 (LCK tyrosine kinase [2]; Table 2, at 5 (head μM)): 34% @; % inhibition of FAK (FAKcd409): −5% and −6% and 4%
CCn1nc(C)cc1C(=O)Nc1ccc(C)c(-c2noc(-c3sc(Nc4ccc(CO)cc4)nc3N)n2)c1 [B(30)] | 10.07 |  |  |  |  | Vessel regression grade (VEGF): ++ (two pluses being judged to be approximately 25-75% regression)
COc1cc(Nc2nc(N)c(-c3nc(-c4cc(NC(=O)c5cccc(Cl)c5)ccc4C)no3)s2)cc(OC)c1OC [D(75), 3-[3-[(3-chlorobenzoyl)amino]-6-methyl-phenyl]-5-[2-[(3,4,5-trimethoxyphenyl)amino]-4-amino-5-thiazolyl]-1,2,4-oxadiazole] |  | 97% | 64% | 8.96 | 8.11 | 
CC(=O)Nc1nc(N)c(-c2nc(-c3cccc(NC(=O)c4ccccc4)c3)cs2)s1 [F(9), N-[3-(2′-Acetylamino-4′-amino-[2,5′]bithiazolyl-4-yl)-phenyl]benzamide] |  |  |  |  |  | pIC50 ([4]; MV522, Table 1): < 5.00; pKi ([1]; Table 1): 8.11; inhibition at 1 µM (LCK tyrosine kinase [2]; Table 1, 1 μM): 12%; pIC50 ([6]; Table 1): 7.68; pKi ([3]; Table 1): 8.02

Continued, in another order:

pKi [3, 8] | inhibition at 1 µM (LCK tyrosine kinase [5]) | inhibition at 1 µM (FGF-R1) | pKi (LCK tyrosine kinase [2]) | Structure (SMILES) | pIC50 ([6]; Table 3) | other results
8.85 | 94% | 84% | 8.49 | COc1cc(Nc2nc(N)c(-c3nc(-c4cc(NC(=O)c5cccc(Cl)c5)ccc4Cl)no3)s2)cc(OC)c1OC [D(64)] | 7.00 to 8.00 | pIC50 ([4]; MV522, Table 3): 5.70
9.00 | 91% | 37% | 8.03 | COc1cccc(C(=O)Nc2ccc(Cl)c(-c3noc(-c4sc(Nc5cc(OC)c(OC)c(OC)c5)nc4N)n3)c2)c1 [D(65), N-(3-{5-[4-Amino-2-(3,4,5-trimethoxy-phenylamino)-thiazol-5-yl]-[1,2,4]oxadiazyl}-4-chloro-phenyl)-3-methoxy-benzamide] | 8.37 | pIC50 ([4]; MV522, Table 3): 5.68
 | 92% | 61% |  | COc1cccc(C(=O)Nc2ccc(C)c(-c3noc(-c4sc(Nc5cc(OC)c(OC)c(OC)c5)nc4N)n3)c2)c1 [D(74), 3-[3-[(3-methoxybenzoyl)amino]-6-methyl-phenyl]-5-[2-[(3,4,5-trimethoxyphenyl)amino]-4-amino-5-thiazolyl]-1,2,4-oxadiazole] | 8.28 | inhibition at 0.05 µM ([1]; Table 3, at 50 nM): 91%; Vessel regression grade [7]: ++ (two pluses being judged to be approximately 25-75% regression)
